The values that follow come from ChEMBL document CHEMBL1143768, “Microwave prompted multigram synthesis, structural determination, and photo-antiproliferative activity of fluorinated 4-hydroxyquinolinones” (Bioorg Med Chem Lett, 2007).

What is called inhibition is the drop in the measured response relative to a control, in per cent. A high value points to a response far below the control. Broadly, the GI50 is the concentration at which growth is held to half of that of the control. Lower therefore signals greater sensitivity of the cells. A word on the Inhibition: it is the change of the read-out against control, counted positive when it falls. The term MIC denotes the lowest concentration that inhibits growth of the organism. Lower therefore signals inhibition by little substance.

Values after ≈ are worked out from the molar mass of the structure shown. Bounds are passed on as bounds.

The subject of series [1] is Mycobacterium tuberculosis. Briefly: Growth inhibition of Mycobacterium tuberculosis at 6.25 ug/ml. In kind it is functional.
In series [2] the test system is HL-60. As to the kind of experiment: Apoptotic activity in HL60 cells irradiated with 2.5 J cm^-2 at 2.5 […] after 72 hrs. In kind it is functional, Homo sapiens.
The nature of series [3]: Photocytotoxicity against human NTCC 2544 cell line irradiated with 2.5 J cm^-2 after 72 hrs by MTT assay. In kind it is cell-based. The following applies: NTCC 2544 cells.
Series [4] deals with HL-60. As to the kind of experiment: Cell cycle arrest in HL60 cell line irradiated with 2.5 J cm^-2 assessed as accumulation at G2 phase at 5.0 […] after 48 hrs. Type of series: functional, Homo sapiens.
The test system of series [5] is HL-60. Briefly: Cell cycle arrest in HL60 cell line irradiated with 2.5 J cm^-2 assessed as accumulation at G1 phase at 2.5 […] after 24 hrs. Type of series: functional, Homo sapiens.
Series [6] relates to HL-60. As to the kind of experiment: Apoptotic activity in HL60 cells irradiated with 2.5 J cm^-2 at 2.5 […] after 24 hrs. Type of series: functional, Homo sapiens.
In another series the test system is LoVo. Briefly: Photocytotoxicity against human LoVo cell line irradiated with 2.5 J cm^-2 after 72 hrs by MTT assay. In kind it is functional. The following applies: light or radiation study. Background: Tetrazolium dyes change colour on reduction, which living cells bring about.
Series [7] deals with HL-60. Briefly: Photocytotoxicity against human HL60 cell line irradiated with 2.5 J cm^-2 after 72 hrs by MTT assay. Type of series: functional. The settings on record: HL-60, light or radiation study.
Series [8] in a line: Photocytotoxicity against human NTCC 2544 cell line irradiated with 1.25 J cm^-2 after 72 hrs by MTT assay. Type of series: cell-based. The settings on record: NTCC 2544 cells.
Series [9] concerns HL-60. Briefly: Cell cycle arrest in HL60 cell line […] cm^-2 assessed as accumulation at G2 phase at 2.5 […] after 72 hrs. In kind it is functional, Homo sapiens.
The subject of series [10] is HL-60. As to the kind of experiment: Cell cycle arrest in HL60 cell line irradiated with 2.5 J cm^-2 assessed as accumulation at G1 phase at 2.5 […] after 72 hrs. Type of series: functional, Homo sapiens.
Series [11] has as its system HL-60. Briefly: Cell cycle arrest in HL60 cell line irradiated with 2.5 J cm^-2 assessed as accumulation at G2 phase at 5.0 […] after 24hrs. Type of series: functional, Homo sapiens.
The subject of series [12] is HL-60. As to the kind of experiment: Cell cycle arrest in HL60 cell line irradiated with 2.5 J cm^-2 assessed as accumulation at G2 phase at 5.0 […] after 72 hrs. In kind it is functional, Homo sapiens.
Series [13] concerns HL-60. As to the kind of experiment: Cell cycle arrest in HL60 cell line irradiated with 2.5 J cm^-2 assessed as accumulation at G1 phase at 5.0 […] after 48 hrs. In kind it is functional, Homo sapiens.
Series [14] deals with HL-60. As to the kind of experiment: Cell cycle arrest in HL60 cell line irradiated with 2.5 J cm^-2 assessed as accumulation at S phase at 5.0 […] after 24hrs. Type of series: functional, Homo sapiens.
The test system of series [15] is HL-60. As to the kind of experiment: Cell cycle arrest in HL60 cell line irradiated with 2.5 J cm^-2 assessed as accumulation at G1 phase at 5.0 […] after 24hrs. In kind it is functional, Homo sapiens.
The subject of series [16] is HL-60. As to the kind of experiment: Apoptotic activity in HL60 cells irradiated with 2.5 J cm^-2 at 5.0 […] after 24 hrs. Type of series: functional, Homo sapiens.
The test system of series [17] is HL-60. As to the kind of experiment: Cell cycle arrest in HL60 cell line irradiated with 2.5 J cm^-2 assessed as accumulation at G2 phase at 2.5 […] after 24 hrs. In kind it is functional, Homo sapiens.
Series [18] relates to HL-60. Briefly: Cell cycle arrest in HL60 cell line irradiated with 2.5 J cm^-2 assessed as accumulation at S phase at 2.5 […] after 72 hrs. Type of series: functional, Homo sapiens.
The subject of series [19] is HL-60. Briefly: Apoptotic activity in HL60 cells irradiated with 2.5 J cm^-2 at 5.0 […] after 72 hrs. Type of series: functional, Homo sapiens.
The test system of series [20] is HL-60. Briefly: Apoptotic activity in HL60 cells irradiated with 2.5 J cm^-2 at 2.5 […] after 48 hrs. In kind it is functional, Homo sapiens.
Series [21] relates to HL-60. As to the kind of experiment: Apoptotic activity in HL60 cells irradiated with 2.5 J cm^-2 at 5.0 […] after 48 hrs. Type of series: functional, Homo sapiens.
Series [22] has as its system HL-60. As to the kind of experiment: Cell cycle arrest in HL60 cell line irradiated with 2.5 J cm^-2 assessed as accumulation at S phase at 2.5 […] after 48 hrs. In kind it is functional, Homo sapiens.
The subject of series [23] is HL-60. Briefly: Cell cycle arrest in HL60 cell line irradiated with 2.5 J cm^-2 assessed as accumulation at G1 phase at 5.0 […] after 72 hrs. Type of series: functional, Homo sapiens.
For series [24], the system named is HL-60. As to the kind of experiment: Cell cycle arrest in HL60 cell line irradiated with 2.5 J cm^-2 assessed as accumulation at S phase at 2.5 […] after 24 hrs. Type of series: functional, Homo sapiens.
Series [25] has as its system HL-60. As to the kind of experiment: Cell cycle arrest in HL60 cell line irradiated with 2.5 J cm^-2 assessed as accumulation at G1 phase at 2.5 […] after 48 hrs. Type of series: functional, Homo sapiens.
Series [26] relates to HL-60. As to the kind of experiment: Cell cycle arrest in HL60 cell line irradiated with 2.5 J cm^-2 assessed as accumulation at S phase at 5.0 […] after 72 hrs. In kind it is functional, Homo sapiens.
For series [27], the system named is HL-60. Briefly: Cell cycle arrest in HL60 cell line irradiated with 2.5 J cm^-2 assessed as accumulation at G2 phase at 2.5 […] after 48 hrs. In kind it is functional, Homo sapiens.
The test system of series [28] is HL-60. Briefly: Cell cycle arrest in HL60 cell line irradiated with 2.5 J cm^-2 assessed as accumulation at S phase at 5.0 […] after 48 hrs. Type of series: functional, Homo sapiens.
The subject of series [29] is HL-60. Briefly: Photocytotoxicity against human HL60 cell line irradiated with 1.25 J cm^-2 after 72 hrs by MTT assay. The settings on record: HL-60, light or radiation study. In kind it is functional.
Series [30] has as its system Mycobacterium tuberculosis. Briefly: Antimicrobial activity against Mycobacterium tuberculosis. Type of series: functional.
The next series concerns Trichophyton benhamiae. As to the kind of experiment: Antifungal activity against Trichophyton mentagrophytes 445(TM) by broth microdilution test. Type of series: functional, Arthroderma benhamiae.

Regarding `O=c1cc(O)c2ccccc2[nH]1`, the inhibition at 6.25 µg/mL in series [1] is 0%.
On to `O=c1cc(O)c2cc(F)ccc2[nH]1`, for which the Activity with HL-60 [2] is 40.5%; in the series with HL-60 [4], 11.7%; in the series with HL-60 [5], 30.8%; in the series with HL-60 [6], 13.2%; in the series on HL-60 [9], 12%; in the series on HL-60 [10], 44.2%. Also, the Activity with HL-60 [11] was found to be 11.1%; in the series with HL-60 [12], 6.9%; in the series on HL-60 [13] it was 49.6%; in the series with HL-60 [14] it was 54.3%; with HL-60 [15], 34.6%; with HL-60 [16], 21%. In addition, the Activity amounted to 10.8% in the series on HL-60 [17]; 43.8% in the series with HL-60 [18]; 46% in the series with HL-60 [19]; 27% in the series on HL-60 [20]; 26% in the series on HL-60 [21]; 45% in the series on HL-60 [22]. Also, the Activity turned out to be 56% in the series with HL-60 [23]; 58.4% in the series with HL-60 [24]; 44.7% in the series with HL-60 [25]; 37.1% with HL-60 [26]; 10.3% in the series with HL-60 [27]; 38.6% in the series on HL-60 [28]. Also, the concentration for 50% growth inhibition (GI50) at 72 h in series [3] and in series [8] was more than 20 µM throughout. Also, the 50% growth inhibitory concentration (GI50) with LoVo is 12.1 µM; in the series on HL-60 [7] it was 7.8 µM; with HL-60 [29], more than 10 µM. The inhibition at 6.25 µg/mL in series [1] came out at 35%.
For `O=c1cc(O)c2cccc(C(F)(F)F)c2[nH]1`, the GI50 at 72 h in [3] is 7.8 µM; in [8] it was more than 20 µM. Besides, the 50% growth inhibitory concentration (GI50) with LoVo is 10.1 µM; in the series with HL-60 [7], 7.3 µM; with HL-60 [29] it was more than 10 µM. In addition, the inhibition at 6.25 µg/mL in series [1] was determined as 69%.
As to `O=c1cc(O)c2ccc(C(F)(F)F)cc2[nH]1`, the figures for the GI50 at 72 h in [3] and in series [8] were 2.5 µM and 7 µM, respectively. For the same molecule, the GI50 in the series on LoVo is 1.8 µM; in the series on HL-60 [29], 6.2 µM. Moreover, the Inhibition in series [30] was 72%. For the same molecule, the inhibition at 6.25 µg/mL in series [1] came out at 72%.
On to `Cc1ccc2c(O)cc(=O)[nH]c2c1`, for which the 50% growth inhibitory concentration (GI50) with HL-60 [7] was 10 µM; in the series with HL-60 [29], more than 10 µM. This molecule returned an inhibition at 6.25 µg/mL in series [1] of 54%.
The matching figures for `O=c1cc(O)c2cccc(F)c2[nH]1`: 10 µM, more than 10 µM and 50%.
For the molecule `O=c1cc(O)c2ccc(F)cc2[nH]1`, the values for the concentration for 50% growth inhibition (GI50) with HL-60 [7] and in the series on HL-60 [29] were 10 µM and more than 10 µM, respectively. The same molecule displayed an inhibition at 6.25 µg/mL in [1] of 52%.
In series [1], `O=c1cc(O)c2ccc(Cl)cc2[nH]1` displayed an inhibition at 6.25 µg/mL of 2%.
`OC(Cn1cncn1)(Cn1cncn1)c1ccc(F)cc1F` [FLUCONAZOLE] showed an MIC against Trichophyton benhamiae of 1950 µM (≈ 597 µg/mL).
Molecule `NC(=O)c1cnccn1` [PYRAZINAMIDE] showed an inhibition at 6.25 µg/mL in series [1] of 100%.
